Measured values from the METLIN SMRT retention time set (Domingo-Almenara et al. 2019).

Test: gradient 5% acetonitrile 3 min, to 50% in 2 min, to 85% in 15 min, held 3 min, 100 µL/min
Conditions: column: Zorbax Extend-C18 2.1 x 50 mm; eluents: water / acetonitrile, 0.1% formic acid
Method in brief: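 Data were gathered over 3 months by HPLC coupled to a quadrupole time-of-flight mass spectrometer, operated in positive and negative ionization mode. Mixtures of ~100 pure standards ran on a Zorbax Extend-C18 column (2.1 × 50 mm, 1.8 μm) at 100 μL/min, with water and acetonitrile each containing 0.1% formic acid and dead and dwell volumes of 40 μL and 900 μL. Retention time was read from adduct peaks picked by computer and checked manually.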

| Compound | RP-LC retention time [s] |
| --- | --- |
| CCC(C)C(NC(=O)c1ccc(C)cc1)C(=O)Nc1nc2ccccc2[nH]1 (stereo not drawn) | 765 |
| COc1cccc(C(=O)CSc2ccc(-n3nc(C)cc3C)nn2)c1 | 931 |
| COc1ccc(-c2csc(NC(=O)NC3CCCC3)n2)cc1 | 861 |
| CCOc1ccc(CNC(=O)c2cc(NC(C)=O)cc3nc(C)ccc23)cc1 | 620 |
| CCCC(NC(=O)c1ccc(C)cc1)C(=O)Nc1nc2ccccc2[nH]1 (stereo not drawn) | 716 |
| CCc1ccc(OCC(=O)N(Cc2ccc(Br)o2)C2CCS(=O)(=O)C2)cc1 (stereo not drawn) | 963 |
| Cc1nn(CCC(=O)NCCc2ccco2)c(=O)c2nn(-c3ccccc3)c(C)c12 | 726 |
| COc1cc(OC)cc(-c2nc(Cn3c(C)nc4ccccc4c3=O)no2)c1 | 876 |
| COc1ccc(Cl)c2c(=O)c3c([nH]c12)CCN(CC(=O)Nc1cccc(C)c1)C3 | 627 |
| C=CCn1c(=O)c2ccccc2n(Cc2nc(-c3ccc(OC(F)(F)F)cc3)no2)c1=O | 1140 |
| COc1cccc(CNC(=O)Cn2nc3cc(-c4ccncc4)nc(C)n3c2=O)c1 | 640 |
| CNC(=O)Nc1ccc(C2(C(=O)N3CCN(c4ccccc4F)CC3)CCC2)cc1 | 799 |
| CN1CCC(N2CCN(S(=O)(=O)c3ccc(F)cc3)CC2)C1=O (stereo not drawn) | 552 |
| Cc1cc(=O)n(CC(=O)Nc2cc(F)ccc2C)c(N2CCCCC2)n1 | 699 |
| COCCN1CCn2cc(S(=O)(=O)Nc3cc(C)ccc3C)cc2C1=O | 730 |
| CC(C)C(=O)NCCn1c(=O)n(Cc2ccccc2)c2cccnc21 | 714 |
| O=C(Cc1cccs1)N1CCC2(CC1)OCCN2S(=O)(=O)c1ccccc1 | 783 |
| CCCS(=O)(=O)N1CCc2c(c(CN(C(=O)c3ccccc3)c3ccccc3)nn2C)C1 | 833 |
| CNC(=O)[C@@H]1CN(C(=O)c2ccc(Cl)s2)C[C@H]1c1nc(COC)no1 | 698 |

| Compound | RP-LC retention time [s] |
| --- | --- |
| O=C(Cc1c[nH]c2ccccc12)N1CCC(c2noc(-c3ccccc3)n2)CC1 | 914 |
| Cc1cc(NC2CCCC2)n2nc(-c3ccc(Cl)cc3)c(C)c2n1 | 855 |
| O=C(COc1ccc(NC(=O)C2CC2)cn1)NCc1cc(F)cc(F)c1 | 754 |
| Cn1cc(-c2ccncc2)cc1C(=O)N1CCN(c2cccc(Cl)c2)CC1 | 679 |
| CC(C)CCNC(=O)C1CCCN(c2nccn3nc(-c4ccccc4Cl)cc23)C1 (stereo not drawn) | 969 |
| CCc1cc(=O)n(CC(=O)N2CCCc3ccccc32)c(N2CCOCC2)n1 | 781 |
| COc1ccc(C(=O)N2C[C@H](c3nc(-c4ccccc4)no3)[C@@H](C)C2)cc1F | 991 |
| CC1=C(c2ccc(F)cc2)S(=O)(=O)N=C1N1CCCN(C(=O)C2CCC2)CC1 | 790 |
| CC(C)NC(=O)c1nccnc1NC(=O)c1ccccc1 | 817 |
| Cc1nc2c(n1C)CN(C(=O)Cc1c(F)cccc1Cl)CC2 | 594 |
| COC[C@@H]1OCCN(Cc2ccc(C)c(C)c2)[C@H]1c1ccccc1 | 724 |
| O=C(CN1CCN(Cc2ccccc2F)C1=O)NCc1ccc(N2CCCCC2)cc1 | 605 |
| CN(CC1CCOCC1)C(=O)Nc1ccccc1Cl | 763 |
| CN(C)c1nc2cc(C(=O)N3CCCC3)sc2n1-c1ccccc1 | 657 |
| COCCNC(=O)Cn1c(=O)n(-c2ccc(C)cc2)c2ncccc21 | 656 |
| CC1CCc2onc(C(=O)Nc3cccc(Cl)c3)c2C1 (stereo not drawn) | 1160 |
| CC(C)Cn1c(=O)c(C(=O)NCc2ccccc2C(F)(F)F)nc2cccnc21 | 1070 |
| CSc1ccc(CNC(=O)CN2CC=C(c3cnn(-c4ccccc4)c3)CC2)cc1 | 720 |
| O=C(CN1CCN(Cc2ccc(F)cc2)C1=O)NCCc1cccs1 | 776 |
